# Assay results published in a melting point compilation (Tetko et al.; mined from patent text by program, amines drawn as free bases though some values may be those of a salt).
row,SMILES,melting point [°C]
1,CC(=O)Nc1nc2ccc(S(=O)(=O)n3c(COC(C)(C)C(=O)O)cc4cc(C(F)(F)F)ccc43)cc2s1,144 to 146
2,Nc1cc(-c2ccccc2CCN2CCN(c3nccn3-c3ccccc3)CC2)ccn1,140 to 142
3,CCOC(=O)COc1cc(-n2ncc(=O)n(C)c2=O)c(Cl)cc1Cl,115 to 117
4,CCOC(=O)c1cccc(C=Cc2ccccc2)c1,82
5,CCOC(=O)c1c(CC)ncnc1NCCc1ccc(CCOS(C)(=O)=O)cc1,84 to 86
6,CCC(=O)Oc1c(OC)cc(C=CC(=O)Nc2cnc3c(C)cc(C)cc3c2-c2ccccc2Cl)cc1OC,235 to 236
7,Nc1cc(=O)nc(Nc2ccc(F)cc2)n1-c1ccccc1,225 to 227
8,Cc1nc(-c2cccc(-n3cnc4cc(-c5ccoc5)ccc43)c2)cs1,136 to 138
9,COC(=O)CCCc1cc2cc(Cl)ccc2n1S(=O)(=O)c1cc(C)cc(C)c1,140 to 143
10,CCCCCCC(C)Oc1ccc(-c2ccc(C(C)=O)cc2)cc1F (configuration not stated),67.6 to 68.5
11,COc1ccc(OC)c(SCCCCC#N)c1,64 to 66
12,O=[N+]([O-])c1cc(O)c(Cl)cc1F,106 to 107
13,CC(C)(C)OC(=O)NCCc1ccnc(C#N)c1,70.5 to 71.2
14,CC1Cn2c(=O)[nH]c3cccc(c32)CN1CCc1ccccc1 (configuration not stated),150
15,C#CC(O)COc1ccc(F)cc1 (configuration not stated),46 to 47
16,CCCc1nc2c(N)nc3cc(OC)ccc3c2s1,152 to 154
17,CC(C)(C)OC(=O)Nc1ccc(-c2ccccc2)cc1[N+](=O)[O-],119 to 121
18,Oc1ccc(Nc2cc(-c3cn(C(c4ccccc4)(c4ccccc4)c4ccccc4)nc3-c3ccccn3)ccn2)cc1,198
19,Cc1cc2c(c(C)c1O)OC[C@@H](N1CCC(O)(c3ccc(F)cc3)CC1)[C@H]2O (relative stereo),226 to 227
20,CCC1c2cccn2-c2ccc(F)cc2N1S(=O)(=O)c1ccc(OC)c(Cl)c1 (configuration not stated),152 to 154
21,N#Cc1ccc(/C=C/C2=CCN(Cc3c[nH]c4ncccc34)CC2)cc1,213 to 215
22,Cc1cccc(-c2nc(=O)c3ccccc3s2)n1,170
23,O=[N+]([O-])c1ccc(-c2cc[nH]n2)cc1,196 to 197
24,O=C1c2ccccc2C(=O)N1OC/C=C/Cc1ccccc1,70 to 71
25,CNC(=O)ON=C1SC(C)(C)N=C1C,90 to 92
26,Cc1nc2c(OCc3ccccc3)cc(CO)cc2n1C,213 to 214

row,SMILES,melting point [°C]
1,Nc1nc(-c2cc(Cl)ccc2Cl)nc(N2C[C@H](O)C[C@H]2CO)n1,171 to 173
2,COC(=O)c1nc(Nc2cccc(C(F)(F)F)c2)sc1-c1ccccc1,147 to 149
3,Oc1ccc([C@H]2c3ccc(OCc4ccccc4)cc3OC[C@H]2c2ccccc2)cc1 (racemic),204 to 205
4,CCOC(=O)C(NC(C)=O)(C(=O)OCC)c1ccc(Cl)cn1,89 to 90
5,COC(=O)c1ccc(C(=O)C=C(c2cc(Cl)cc(C(F)(F)F)c2)C(F)(F)F)c2ccccc12,90 to 90.5
6,COC(=O)N1CCN(C(=O)c2cc(S(=O)(=O)NN(C)C)ccc2N)CC1,169 to 171
7,Cc1c(O[Si](C(C)C)(C(C)C)C(C)C)cc2occ(N3CCC(O)(c4ccc(F)cc4)CC3)c(=O)c2c1Br,193 to 195
8,N#CC(F)(F)C(O)(Cn1cncn1)c1ccc(F)cc1F (configuration not stated),130 to 132
9,O=C(O)C(=O)c1ccc(OCCOc2ccc3ccccc3c2)cc1Cl,152 to 153
10,COC(=O)c1nc(CCl)n(-c2ccc(Cl)cc2C(=O)c2ccccc2)n1,132 to 134
11,C[C@@H](Cc1c2n(c3cc(F)c(O)cc13)CCC2)NC(=O)OC(C)(C)C,198 to 199
12,O=C(CCCCCC(c1cc(F)ccc1F)S(=O)(=O)c1ccc(Cl)cc1)N1CCCC1 (configuration not stated),106
13,CC(C)Nc1cccnc1N1CCN(C(=O)c2ccc(C(=O)NCCCO)cn2)CC1,139 to 140
14,Cc1cc2c(cc1[N+](=O)[O-])C(C)(C)CCC2(C)C,143 to 144
15,CNC(=O)c1cc2c(Oc3ccc(-c4noc(C(F)(F)F)n4)cc3)cncc2s1,174 to 176
16,O=C(NC(c1ccccc1)c1ccccc1)[C@H]1Cc2c([nH]c3ccccc23)CN1,191 to 196
17,Cc1cccc(Nn2c(-c3ccccc3)c(C)[nH]c2=S)c1,206
18,O=C(Nc1nc(-c2ccco2)c(C(=O)c2ccn(Cc3ccccc3)c(=O)c2)s1)c1ccncc1,288 to 291
19,O=c1[nH]c2ccc(C3=NOC(CN4CCC(Cc5ccc(F)cc5)C(O)C4)C3)cc2o1 (configuration not stated),224 to 233
20,OCCC1(c2ccccc2)CCNC1 (configuration not stated),106 to 110
21,O=C(CCc1ccc(O)c(C=Nc2ccccc2O)c1)ON1C(=O)CCC1=O,170
22,CNC(=O)c1cc2nc(C(F)(F)F)ccc2c(C)c1NC(=O)c1cc(C(F)(F)F)nn1-c1ncccc1Cl,227 to 230
23,C#CCOc1ncc(Cl)cc1OC,62 to 64
24,COc1ccc(CCc2oc3ccc(C#N)cc3c2C(=O)O)cc1,205 to 208
25,C=CCSc1nc2cc(C)c(C)cc2[nH]1,119 to 120
26,Cc1ccc2c(c1)C(O)(c1ccccn1)CC(C)(C)CO2 (configuration not stated),126

row,SMILES,melting point [°C]
1,Cc1cc(=O)oc2cc(N(C)C(=O)C(=O)O)ccc12,162 to 164
2,CC(=O)Oc1cc2c(c([N+](=O)[O-])c1OC(C)=O)C(=O)C(C)(C)CC2,145 to 147
3,Clc1ccc2nc3n(c2c1)CCC3,136
4,O=C(c1ccc(F)cc1)C1CCN(CCN(C(=O)c2ccc([N+](=O)[O-])cc2)c2ccccc2C(F)(F)F)CC1,157 to 158
5,O=C(OCC1OCCS1=O)c1ccccc1 (configuration not stated),70 to 72
6,NC(=O)c1ccc(C2CCCCCC2)c(Cl)c1,152 to 155
7,C=C1[C@H](O)C[C@H](O[Si](C)(C)C(C)(C)C)[C@H]1CO[Si](C)(C)C(C)(C)C,64 to 66
8,CC(=O)Nc1ccc2c(c1)OCCCO2,108 to 109
9,Cn1c(SCC(=O)C23CC4CC(CC(C4)C2)C3)nnc1-c1cccs1,156 to 157
10,Cn1nc(C(=O)NCC2(O)CN3CCC2CC3)c2ccccc21 (configuration not stated),147 to 149
11,CCCCCCCCCc1ccc(O)c(C=NO)c1,170
12,CCCCCCCCCOc1ccc(-c2ccc(OCC(C)CC)nn2)cc1 (configuration not stated),87
13,COc1cc(OC)c2c(=O)c(I)coc2c1,158 to 160
14,COC(=O)C1=C(C)Nc2ncnn2C1c1cccs1 (configuration not stated),239 to 240
15,COc1cc(OC)c2c(=O)[nH]c(-c3ccccn3)nc2c1,215 to 217
16,COCCOc1cc2ncnc(NC3=CC(=O)C(Oc4cccnc4)=CC3=O)c2cc1OC,189 to 190
17,CCCCCCCCCCC[C@@H](O)CC(=O)OCC(=O)c1ccc(Br)cc1,109 to 110
18,CCOc1cc(C(=O)NC2CC(C)(C)NC(C)(C)C2)ccc1-c1cc2cc(Cl)c(Cl)cc2[nH]1,253 to 255
19,CC(=O)N1CC(CCN2CC=C(c3ccc(Cl)cc3)CC2)c2ccccc21 (configuration not stated),116 to 118
20,CC(C)(C)NCC(O)COc1ccc(N)cc1 (configuration not stated),125 to 127
21,Cc1cc(O)c(O)cc1Br,92 to 98
22,CSc1nc(NC2CCCCC2)c2ccnc-2[nH]1,189 to 190
23,CC(C)(C)OC(=O)N1CCN(C2=Nc3ccccc3Sc3ccccc32)CC1,127 to 130
24,NCCCP(=O)(O)C1CCCCC1,202 to 203
25,O=C(O)Cn1c(=O)sc2cc(-c3ccccc3)c(Cl)cc21,262 to 266
26,CN(CCCO)C(=O)c1cc2ccccc2c(-c2ccccc2I)n1,51 to 52

row,SMILES,melting point [°C]
1,CC(Br)C(=O)Nc1ccc(Cl)cc1NC1CC1 (racemic),130
2,O=c1ccc(-c2ccc(O)cc2)cn1Cc1ccc(Cl)cc1F,207
3,N#CC(C(=O)OC1CCCCC1)=C1Nc2ccccc2O1,143 to 145
4,COc1ccc2nc(SCc3nccc(OC)c3OC)[nH]c2n1,157
5,N#CCN1C(=O)COc2cc(F)c(-n3c(=O)n4n(c3=O)CCCC4)cc21,286 to 287
6,Cc1c(S(C)(=O)=O)cc([N+](=O)[O-])c(Cl)c1[N+](=O)[O-],174 to 175
7,CN(C)C=CC(=O)c1cccc(C(F)(F)F)c1,60.5 to 62
8,COc1ccc(C2=NN(C3CCN(S(=O)(=O)c4cccc(C(=O)O)c4)CC3)C(=O)C2(C)C)cc1OC,244
9,COC(=O)NNc1cc(C)c(-c2ccc(C#N)cc2)nn1,191 to 192
10,Cc1cc(C(F)(F)C(F)(F)F)ccc1NC(=O)c1ccc(Cl)c(Cl)c1C(=O)NC(C)C,208 to 209
11,COC(=O)c1cc2nccnc2cc1NC(=O)OC(C)(C)C,196 to 198
12,COc1ccc(C(=O)N2CC[C@@H](O)C2=O)cc1O,129 to 131
13,Cc1c(C(=O)NN2CCCCC2)nn(-c2ccc(Cl)cc2Cl)c1-c1ccc(Cl)cc1,148
14,CN1CCN(C(=O)C(CC(=O)N2Cc3cscc3C2)Cc2ccccc2)CC1 (configuration not stated),156 to 158
15,COCOc1cc2c(cc1-c1cc(C=CC(=O)O)ccc1O)C(C)(C)CCC2(C)C,101 to 103
16,C[C@](N)(Cc1ccccc1)C(=O)O,137 to 138
17,COc1cccc2c(=O)c(-c3cccc(C(F)(F)F)c3F)nn(CCCNS(C)(=O)=O)c12,62 to 64
18,CCCCc1nc(Cl)c(CC(=O)O)c(Cc2ccc(-c3ccccc3C(=O)O)cc2)n1,100 to 110
19,CCC(C(C)=CC(CNC(=O)c1cnc2nc(C)ccc2c1O)=NO)[N+](=O)[O-] (configuration not stated),204 to 205
20,O=C1OCc2ccccc2C1=NO,181 to 185
21,OCCC#Cc1ccc(-c2ccc(F)cc2)cc1,134
22,Cc1ccc(C)n1-c1nc(S(=O)(=O)Nc2cccc(Cl)c2Cl)n[nH]1,185
23,COc1ccc(NC(C)=O)c(Sc2ccc([N+](=O)[O-])cc2[N+](=O)[O-])c1,125 to 126
24,O=[N+]([O-])c1ccc(-c2c[nH]c(Cl)n2)cc1,136 to 138
